Assay results published in patent US8501755B2, “Tetrahydropyridothienopyrimidine compounds and methods of use thereof” (Bayer Intellectual Property GmbH, priority 2006, dated 2013).

What was measured:
Type in all cases: cell-based
A431 cells = experiment: In vitro tumor cell proliferation assay (Cell Titer-Glo) in A431 cells; details: Homo sapiens, A-431, 72 h, A431 human epidermoid carcinoma overexpressing HER1; 72 hours exposure; read-out: IC50, activities in A431 cell lines
Summary of the method: (§1)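 Viability after 72 h drug exposure at 37 °C was read as CellTiter-Glo ATP luminescence, giving IC50. Cells (2.5×10^3/well, RPMI + 10% FBS) were compound-treated one day post-seeding, 0.1% DMSO final: A431 overexpresses HER1, N87 overexpresses HER2 and HER1.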

N87 = experiment: In vitro tumor cell proliferation assay (Cell Titer-Glo) in N87 cells; details: N87 human gastric carcinoma overexpressing HER2 and HER1; 72 hours exposure; read-out: IC50, activities in N87 cell lines
Summary of the method: as §1

H1975 cells = experiment: In vitro tumor cell proliferation assay (Cell Titer-Glo) in H1975 cells; details: NCI-H1975; H1975 human NSCLC expressing mutant HER1 (L858R,T790M); 72 hours exposure; read-out: IC50, activities in H 1975 cell lines
Summary of the method: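 After 72 h compound exposure at 37° C (top 10 uM down to 64 pM, 0.1% DMSO), viability of EGFR L858R/T790M-mutant H1975 cells was read as ATP luminescence.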

SMILES	IC50 (A431 cells) [nM]	IC50 (N87) [nM]	IC50 (H1975 cells) [nM]
CN(C)C/C=C/C(=O)N1CCc2c(sc3ncnc(Nc4ccc5c(c4)CCC5)c23)C1 [Example 185, N-(2,3-dihydro-1H-inden-5-yl)-7-[(2E)-4-(dimethylamino)but-2-enoyl]-5,6,7,8-tetrahydropyrido [4′,3′:4,5]thieno[2,3-d]pyrimidin-4-amine]	200 to 1000	< 200	1000 to 10000
CCN(CC)C/C=C/C(=O)N1CCc2c(sc3ncnc(Nc4ccc(Cl)c(Cl)c4)c23)C1 [Example 188, N-(3,4-dichlorophenyi)-7-[(2E)-4-(diethylamino)but-2-enoyl]-5,6,7,8-tetrahydropyrido [4′,3′:4,5]thieno[2,3-d]pyrimidin-4-amine]	200 to 1000	< 200	200 to 1000
CCN(C)C/C=C/C(=O)N1CCc2c(sc3ncnc(Nc4ccc(Cl)c(Cl)c4)c23)C1 [Example 190, N-(3,4-dichlorophenyl)-7-{(2E)-4-[ethyl(methyl)amino]but-2-enoyl}-5,6,7,8-tetrahydropyrido [4′,3:4,5]thieno[2,3-d]pyrimidin-4-amine]	200 to 1000	< 200	200 to 1000
O=C(/C=C/CN1CCOCC1)N1CCc2c(sc3ncnc(Nc4ccc(Cl)c(Cl)c4)c23)C1 [Example 191, N-(3,4-dichlorophenyl)-7-[{2E)-4-morpholin-4-ylbut-2-enoyl]-5,6,7,8-tetrahydropyrido [4′,3′:4,5]thieno[2,3-d]pyrimidin-4-amine]	200 to 1000	< 200	1000 to 10000
O=C(/C=C/CN1CCOCC1)N1CCc2c(sc3ncnc(Nc4cccc(Br)c4)c23)C1 [Example 193, N-(3-bromophenyl)-7-[(2E)-4-morpholin-4-ylbut-2-enoyl]-5,6,7,8-tetrahydropyrido [4′,3′:4,5]thieno[2,3-d]pyrimidin-4-amine]	1000 to 10000	< 200	1000 to 10000
O=C(/C=C/CN1CCCC1)N1CCc2c(sc3ncnc(Nc4cccc(Br)c4)c23)C1 [Example 194, N-(3-bromophenyl)-7-[(2E)-4-pyrrolidin-1-ylbut-2-enoyl]-5,6,7,8-tetrahydropyrido [4′,3′:4,5]thieno[2,3-d]pyrimidin-4-amine]	< 200	< 200	< 200
O=C(/C=C/CN1CCCCC1)N1CCc2c(sc3ncnc(Nc4cccc(Br)c4)c23)C1 [Example 196, N-(3-bromophenyl)-7-[(2E)-4-piperidin-1-ylbut-2-enoyl]-5,6,7,8-tetrahydropyrido [4′,3′:4,5]thieno[2,3-d]pyrimidin-4-amine]	< 200	< 200	200 to 1000
CN(C/C=C/C(=O)N1CCc2c(sc3ncnc(Nc4ccc(Cl)c(Cl)c4)c23)C1)C(C)(C)C [Example 199, 7-{(2E)-4-[tert-butyl(methyl)amino]but-2-enoyl}-N-(3,4-dichlorophenyl)-5,6,7,8-tetrahydropyrido [4′,3′:4,5]thieno[2,3-d]pyrimidin-4-amine]	< 200	< 200	< 200
CCN(C/C=C/C(=O)N1CCc2c(sc3ncnc(Nc4ccc(Cl)c(Cl)c4)c23)C1)C1CCCCC1 [Example 200, 7-{(2E)-4-[cyclohexyl(ethyl)amino]but-2-enoyl}-N-(3,4-dichlorophenyl)-5,6,7,8-tetrahydropyrido [4′,3′:4,5]thieno[2,3-d]pyrimidin-4-amine]	200 to 1000	< 200	200 to 1000
CN(C/C=C/C(=O)N1CCc2c(sc3ncnc(Nc4cccc(Br)c4)c23)C1)C1CCCCC1 [Example 202, N-(3-bromophenyl)-7-{(2E)-4-[cyclohexyl(methyl)amino]but-2-enoyl}-5,6,7,8-tetrahydropyrido [4′,3′:4,5]thieno[2,3-d]pyrimidin-4-amine]	200 to 1000	< 200	200 to 1000
CN(C/C=C/C(=O)N1CCc2c(sc3ncnc(Nc4ccc(Cl)c(Cl)c4)c23)C1)C1CCCCC1 [Example 203, 7-{(2E)-4-[cyclohexyl(methyl)amino]but-2-enoyl}-N-(3,4-dichlorophenyl)-5,6,7,8-tetrahydropyrido [4′,3′:4,5]thieno[2,3-d]pyrimidin-4-amine]	200 to 1000	< 200	1000 to 10000
CC1CCCN1C/C=C/C(=O)N1CCc2c(sc3ncnc(Nc4cccc(Br)c4)c23)C1 (stereo not drawn) [Example 207, N-(3-bromophenyl)-7-[(2E)-4-(2-methylpyrrolidin-1-yl)but-2-enoyl]-5,6,7,8-tetrahydropyrido [4′,3′:4,5]thieno[2,3-d]pyrimidin-4-amine]	200 to 1000	< 200	200 to 1000

The remaining lines, values ahead:

IC50 (A431 cells) [nM]	IC50 (N87) [nM]	IC50 (H1975 cells) [nM]	SMILES
200 to 1000	< 200	< 200	Cc1cc(Nc2ncnc3sc4c(c23)CCN(C(=O)/C=C/CN(C)C)C4)ccc1Cl [Example 183, N-(4-chloro-3-methylphenyl)-7-[(2E)-4-(dimethylamino)but-2-enoyl]-5,6,7,8-tetrahydropyrido [4′,3′:4,5]thieno[2,3-d]pyrimidin-4-amine]
200 to 1000	< 200	1000 to 10000	CN(C)C/C=C/C(=O)N1CCc2c(sc3ncnc(Nc4ccc(Br)cc4)c23)C1 [Example 184, N-(4-bromophenyl)-7-[(2E)-4-(dimethylamino)but-2-enoyl]-5,6,7,8-tetrahydropyrido [4′,3′:4,5]thieno[2,3-d]pyrimidin-4-amine.]
200 to 1000	< 200	200 to 1000	CCN(C)C/C=C/C(=O)N1CCc2c(sc3ncnc(Nc4cccc(Br)c4)c23)C1 [Example 186, N-(3-bromophenyl)-7-{(2E)-4-[ethyl(methyl)amino]but-2-enoyl}-5,6,7,8-tetrahydropyrido [4′,3′:4,5]thieno[2,3-d]pyrimidin-4-amine]
200 to 1000	< 200	< 200	CC(C)N(C)C/C=C/C(=O)N1CCc2c(sc3ncnc(Nc4ccc(Cl)c(Cl)c4)c23)C1 [Example 187, N-(3,4-dichlorophenyl)-7-{(2E)-4-[isopropyl(methyl)amino]but-2-enoyl}-5,6,7,8-tetrahydropyrido[4′,3′:4,5]thieno[2,3-d]pyrimidin-4-amine]
200 to 1000	< 200	200 to 1000	CC(C)N(C)C/C=C/C(=O)N1CCc2c(sc3ncnc(Nc4cccc(Br)c4)c23)C1 [Example 189, N-(3-bromophenyl)-7-{(2E)-4-[isopropyl(methyl)amino]but-2-enoyl}-5,6,7,8-tetrahydropyrido [4′,3′:4,5]thieno[2,3-d]pyrimidin-4-amine]
200 to 1000	< 200	200 to 1000	O=C(/C=C/CN1CCCC1)N1CCc2c(sc3ncnc(Nc4ccc(Cl)c(Cl)c4)c23)C1 [Example 192, N-(3,4-dichlorophenyl)-7-[(2E)-4-pyrrolidin-1-ylbut-2-enoyl]-5,6,7,8-tetrahydropyrido [4′,3′:4,5]thieno[2,3-d]pyrimidin-4-amine]
< 200	< 200	< 200	O=C(/C=C/CN1CCCCC1)N1CCc2c(sc3ncnc(Nc4ccc(Cl)c(Cl)c4)c23)C1 [Example 195, N-(3,4-dichlorophenyl)-7-[(2E)-4-piperidin-1-ylbut-2-enoyl]-5,6,7,8-tetrahydropyrido [4′,3′:4,5]thieno[2,3-d]pyrimidin-4-amine]
< 200	< 200	200 to 1000	CCN(CC)C/C=C/C(=O)N1CCc2c(sc3ncnc(Nc4cccc(Br)c4)c23)C1 [Example 197, N-(3-bromophenyl)-7-[(2E)-4-(diethylamino)but-2-enoyl]-5,6,7,8-tetrahydropyrido [4′,3′:4,5]thieno[2,3-d]pyrimidin-4-amine]
< 200	< 200	200 to 1000	CN(C/C=C/C(=O)N1CCc2c(sc3ncnc(Nc4cccc(Br)c4)c23)C1)C(C)(C)C [Example 198, N-(3-bromophenyl)-7-{(2E)-4-[tert-butyl(methyl)amino]but-2-enoyl}-5,6,7,8-tetrahydropyrido [4′,3′:4,5]thieno[2,3-d]pyrimidin-4-amine]
200 to 1000	< 200	200 to 1000	CCN(C/C=C/C(=O)N1CCc2c(sc3ncnc(Nc4cccc(Br)c4)c23)C1)C1CCCCC1 [Example 201, N-(3-bromophenyl)-7-{(2E)-4-[cyclohexyl(ethyl)amino]but-2-enoyl}-5,6,7,8-tetrahydropyrido [4′,3′:4,5]thieno[2,3-d]pyrimidin-4-amine]
200 to 1000	< 200	200 to 1000	CCN(C/C=C/C(=O)N1CCc2c(sc3ncnc(Nc4cccc(Br)c4)c23)C1)C(C)C [Example 204, N-(3-bromophenyl)-7-{(2E)-4-[ethyl(isopropyl)amino]but-2-enoyl}-5,6,7,8-tetrahydropyrido [4′,3′:4,5]thieno[2,3-d]pyrimidin-4-amine]
< 200	< 200	< 200	CCN(C/C=C/C(=O)N1CCc2c(sc3ncnc(Nc4ccc(Cl)c(Cl)c4)c23)C1)C(C)C [Example 205, N-(3,4-dichlorophenyl)-7-{(2E)-4-[ethyl(isopropyl)amino]but-2-enoyl}-5,6,7,8-tetrahydropyrido [4′,3′:4,5]thieno[2,3-d]pyrimidin-4-amine]
200 to 1000	< 200	200 to 1000	CC(C)N(C/C=C/C(=O)N1CCc2c(sc3ncnc(Nc4cccc(Br)c4)c23)C1)C(C)C [Example 208, N-(3-bromophenyl)-7-[(2E)-4-(diisopropylamino)but-2-enoyl]-5,6,7,8-tetrahydropyrido [4′,3:4,5]thieno[2,3-d]pyrimidin-4-amine]
